Laboratory results published in patent publication US9271916B2, “Composition for reducing skin wrinkles including PDE5 inhibitor” (SK Chemicals Co., Ltd., priority 2011, dated 2016).
Structures can show the parent of a compound that is named as a salt.

Experiments:
[1] = test system: UVB-induced skin wrinkles; assay: Wrinkle reduction in UVB-irradiated hairless mice; type: in vivo; conditions: for Wrinkle reduction (skin photographs): 10 mM (about 5%), applied twice daily for 14 days after wrinkle induction
Experimental: An examination was made as to whether the PDE5 inhibitors can substantially reduce skin wrinkles of animal models. Hairless mice, aged 7 weeks, were irradiated with UVB (290-320 nm, 312 nm) to induce wrinkles. The compound or the control was applied to each mouse and its influence on the induced wrinkles was evaluated. More specifically, the mice were irradiated with 60 mJ/cm^2 (1 minimal […] dose (MED)) for 3 days weekly during the first and second week after wrinkling, 120 mJ/cm^2 (2 MED) for 3 days during the third week after wrinkling, 180 mJ/cm^2 (3 MED) for 3 days during the fourth week after wrinkling, 240 mJ/cm^2 (4 MED) for 3 days weekly during the fifth to eighth week after wrinkling, and 240 mJ/cm^2 (4 MED) for 5 days weekly during the ninth to fifteenth week after wrinkling. During the sixteenth and seventeenth week after wrinkling, about 0.5 ml of squalene-OOH, an oxidation product of squalene by UV irradiation, was applied once using a brush to induce deeper wrinkles. Thereafter, the compound or the control was applied to each mouse twice daily for 14 days.

[2] = test system: matrix metalloproteinase-1 (MMP-1) expression in normal human dermal fibroblasts; assay: Inhibition of MMP-1 expression in normal human dermal fibroblasts; type: cell-based; conditions: NHDF, negative control 189.7±10.9%, p<0.01
Experimental: Effects by mirodenafil hydrochloride, test compound, on inhibition of matrix metalloproteinase-1 (MMP-1) expression was evaluated with normal human dermal fibroblasts.
(−)Epigallocatechin gallate (EGCG) (Sigma-Aldrich Co., U.S.A.) was used as a positive control because there are lots of comparative experimental data using the EGCG. EGCG has been reported to be effective in inhibition of MMP-1 expression when evaluating with fibroblasts. DMSO (Dimethyl sulfoxide) was used as a diluent.
(§1) 0.01 mL of aliquot was taken from 10 mM of mirodenafil hydrochloride stock solution, and 9.99 mL of DMSO was added to the aliquot to make 10,000 nM of sample. This sample was additionally diluted to 1,000 nM of concentration right before being used. 10,000 nM and 1,000 nM of solutions were diluted 100 times with serum-free medium to […], right before being applied.
For making a positive control, 10,000 μM (4.584 mg/mL) of EGCG was prepared by dissolving it with serum-free medium, and then the solution was diluted to 10 μM (0.0046 mg/mL).
BCA protein assay kit (Lot No.: KK140637, Pierce Biotechnology Inc., USA) was used for total protein analysis, and matrix metalloproteinase-1 (MMP-1), human, biotrak ELISA system kit (Lot No.: 398061, GE Healthcare, UK) was used for MMP-1 analysis.
The contents of MMP-1 in wells to which negative control, test compound or positive control was added were divided by the content of total protein. The adjusted content of MMP-1 was used to calculate “Inhibition rate of MMP-1 expression” with the following equation. This test was repeated three times. Inhibition rate of MMP-1 expression (%)=A/B×100
A: MMP-1 amount of sample or positive control
B: MMP-1 amount of negative control
The other materials and methods which were not mentioned in detail were similar to those of Example 3.

[3] = test system: type I procollagen production in normal human dermal fibroblasts (NHDF, cell line 7F3802); assay: Procollagen type I production in normal human dermal fibroblasts; type: cell-based; conditions: 48 hours, negative control 100.0±0.0%, p<0.01
Experimental: Effects by mirodenafil hydrochloride, test compound, on production of type I collagen was evaluated with normal human dermal fibroblasts.
Cell line 7F3802 was used as a normal human dermal fibroblast (hereinafter, ‘NHDF’). Frozen NHDF was thawed and subcultured, and passages 5 to 7 were used for this test.
L-Ascorbic acid (Sigma-Aldrich Co., U.S.A.) was used as a positive control because there are lots of comparative experimental data using l-ascorbic acid. L-Ascorbic acid has been reported to be effective in acceleration of collagen production when evaluating with fibroblasts. DMSO (Dimethyl sulfoxide) was used as a diluent.
as §1
For making a positive control, 20,000 μM (3.522 mg/mL) of 1-ascorbic acid was prepared by dissolving it with serum-free medium, and then the solution was diluted to 200 μM.
Two cell culture media were used in this experiment. Complete medium consisting of FBS (fetal bovine serum), Penicillin-Streptomycin (10,000 U/mL of penicillin and 10,000 ug of streptomycin) and DMEM/F12 (dulbecco's modified eagle's medium/F12) was used during subculture before test compound was applied, and then serum-free medium consisting of Penicillin-Streptomycin and DMEM (dulbecco's modified eagle's medium) was used.
Pre-treatment (cell culture and treatment of test compound) was performed as follows: After culturing in complete medium, 400 μl of NHDF was seeded into 48-well plates (1×10^5 cells/400 μl/well), and cultured at a condition of 37° C. and 5% CO2 incubator (MCO-20AIC, Sanyo, Japan) for 24 hours. After culture was completed, the remaining media were removed from each well. 500 μl of D-PBS (D-phosphate buffered saline) was added to each well to wash wells. […]

## CC1=C(/C=C/C(C)=C/C=C/C(C)=C/C(=O)O)C(C)(C)CCC1 [retinoic acid]
[1]; 0.05%, topical, twice then once daily
  Formation and peeling of cornified layers of the skin: Cornified layers were formed and continuously peeled

## CCCOc1ccc(S(=O)(=O)N2CCN(CCO)CC2)cc1-c1nc2c(CCC)cn(CC)c2c(=O)[nH]1.Cl.Cl [mirodenafil 2HCl]
[1]
  Wrinkle reduction (skin photographs): Wrinkle reduction was observed

## CCCOc1ccc(S(=O)(=O)N2CCN(CCO)CC2)cc1-c1nc2c(CCC)cn(CC)c2c(=O)[nH]1 [mirodenafil hydrochloride]
[2]; 10 nM
  MMP-1 expression (% of control): 115.8±9.1%
[2]; 100 nM
  MMP-1 expression (% of control): 97.9±8.5%
[3]; 10 nM
  Synthesis rate of procollagen type I: 149.7±12.4%
[3]; 100 nM
  Synthesis rate of procollagen type I: 189.8±6.4%

## CCCOc1ccc(S(=O)(=O)N2CCN(CCO)CC2)cc1-c1nc2c(CCC)cn(CC)c2c(=O)[nH]1 [mirodenafil free base, mirodenafil]
[1]
  Wrinkle reduction (skin photographs): Wrinkle reduction was observed

## O=C1O[C@H]([C@@H](O)CO)C(O)=C1O [L-Ascorbic acid]
[3]; 35.2 μg/mL (200 μM)
  Synthesis rate of procollagen type I: 175.7±11.5%

## (−)Epigallocatechin gallate [EGCG]
[2]; 0.0046 mg/mL (10 μM)
  MMP-1 expression (% of control): 102.3±18.7%
